Assay results from patent US20260327191A1, “GSK3a INHIBITORS AND METHODS OF USE THEREOF” (Blueprint Medicines Corporation, priority 2023, published 2026).
Structures can show the parent of a compound that is named as a salt. Where two headings read alike, the source gives them in different places.

How the values were obtained:
[1] = target: T1, human GSK3α (Homo sapiens, UniProt P49840); experiment: In vitro enzymatic activity assay, GSK3α; format: biochemical; conditions: 1.0 mM ATP, 1.0 μM peptide substrate, 120 min, 25° C
T1 construct: Full length human GSK3α or GSK3B expressed as N-terminal GST fusion proteins; GST (N); purchased Carna Biosciences (Japan); host or cells: baculovirus host

[2] = target: T2, GSK3A (Homo sapiens, UniProt P49840); experiment: NanoBRET cellular target engagement assay, Nanoluc-GSK3A in HEK293 cells; format: cell-based; conditions: NanoBRET GSK3α IC50, HEK293 cells, tracer K-8, 2 hours, 37° C
T2 construct: expressed in transfected cells

[3] = target: T3, GSK3B (Homo sapiens, UniProt P49841); experiment: NanoBRET cellular target engagement assay, Nanoluc-GSK3B in HEK293 cells; format: cell-based; set-up: expressed in transfected cells; conditions: NanoBRET GSK3β IC50, HEK293 cells, tracer K-8, 2 hours, 37° C
[4] = target: T3, GSK3B; experiment: In vitro enzymatic activity assay, GSK3β; format: biochemical; set-up: Full length human GSK3α or GSK3B expressed as N-terminal GST fusion proteins; GST (N); purchased Carna Biosciences (Japan); host or cells: baculovirus host; conditions: 1.0 mM ATP, 1.0 μM peptide substrate, 120 min, 25° C

T3 sequence (P49841 whole entry, the tested form may be a part): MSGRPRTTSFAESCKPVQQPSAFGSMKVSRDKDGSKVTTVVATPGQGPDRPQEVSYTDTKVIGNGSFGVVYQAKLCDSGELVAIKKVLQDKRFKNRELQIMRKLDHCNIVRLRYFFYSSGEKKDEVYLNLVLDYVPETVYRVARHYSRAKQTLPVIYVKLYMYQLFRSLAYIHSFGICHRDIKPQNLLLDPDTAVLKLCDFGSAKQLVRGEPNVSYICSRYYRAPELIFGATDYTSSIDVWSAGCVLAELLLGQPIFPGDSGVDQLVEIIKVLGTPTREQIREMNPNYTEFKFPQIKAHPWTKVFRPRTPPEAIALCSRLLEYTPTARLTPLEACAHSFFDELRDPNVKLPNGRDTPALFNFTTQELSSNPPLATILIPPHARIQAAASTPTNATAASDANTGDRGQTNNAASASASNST
T1 sequence (P49840 whole entry, the tested form may be a part): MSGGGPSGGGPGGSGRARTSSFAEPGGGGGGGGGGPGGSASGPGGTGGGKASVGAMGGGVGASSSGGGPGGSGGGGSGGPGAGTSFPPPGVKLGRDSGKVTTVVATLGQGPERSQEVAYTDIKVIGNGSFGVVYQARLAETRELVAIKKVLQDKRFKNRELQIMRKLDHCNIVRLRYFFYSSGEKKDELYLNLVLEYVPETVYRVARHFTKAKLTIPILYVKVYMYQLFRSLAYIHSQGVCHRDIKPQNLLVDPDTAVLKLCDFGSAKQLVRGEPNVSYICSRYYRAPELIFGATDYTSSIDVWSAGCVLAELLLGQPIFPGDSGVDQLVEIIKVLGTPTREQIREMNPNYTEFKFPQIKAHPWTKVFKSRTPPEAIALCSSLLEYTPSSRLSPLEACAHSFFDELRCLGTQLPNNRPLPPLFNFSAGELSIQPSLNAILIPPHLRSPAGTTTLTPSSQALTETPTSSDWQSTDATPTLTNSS
T2 sequence (P49840 whole entry): as the sequence (P49840 whole entry, the tested form may be a part) above

SMILES | IC50 ([1]; read-out: Enzyme GSK3α (IC50)) [µM] | IC50 [2] [µM] | IC50 [3] [µM] | IC50 ([4]; read-out: Enzyme GSK3β (IC50)) [µM] | IC50 ([1]; Enzyme GSK3α (IC50)) [µM] | IC50 ([4]; Enzyme GSK3β (IC50)) [µM]
COCc1cc(C)c(-n2cnc(N)c(C(=O)Nc3cncc(C4(N)CCC4)c3)c2=O)c(C)c1 [Example 157, 4-amino-N-(5-(1-aminocyclobutyl)pyridin-3-yl)-1-(4-(methoxymethyl)-2,6-dimethylphenyl)-6-oxo-1,6-dihydropyrimidine-5-carboxamide] | 0.0325 | 0.0113 | 1.16 | 1.32 |  | 
Cc1cc(CS(C)(=O)=O)cc(C)c1-n1cnc(N)c(C(=O)Nc2cncc([C@H]3CCCCN3)c2)c1=O [Example 158, (R)-4-amino-1-(2,6-dimethyl-4-((methylsulfonyl)methyl)phenyl)-6-oxo-N-(5-(piperidin-2-yl)pyridin-3-yl)-1,6-dihydropyrimidine-5-carboxamide] | 0.0093 | 0.0373 | 0.532 | 0.355 |  | 
Cc1cc(F)cc(C)c1-n1cnc(N)c(C(=O)Nc2cncc([C@H]3CCCCN3)c2)c1=O [Example 161, (R)-4-amino-1-(4-fluoro-2,6-dimethylphenyl)-6-oxo-N-(5-(piperidin-2-yl)pyridin-3-yl)-1,6-dihydropyrimidine-5-carboxamide trifluoroacetate] | 0.0072 | 0.003 | 0.287 | 0.379 |  | 
Cc1cc(C(F)(F)F)cc(C)c1-n1cnc(N)c(C(=O)Nc2cncc([C@H]3CCCCN3)c2)c1=S [Example 162, (R)-4-amino-1-(2,6-dimethyl-4-(trifluoromethyl)phenyl)-N-(5-(piperidin-2-yl)pyridin-3-yl)-6-thioxo-1,6-dihydropyrimidine-5-carboxamide trifluoroacetate] | 0.0056 | 0.0054 | 0.301 | 0.218 |  | 
COCc1cc(C)c(-n2cnc(N)c(C(=O)Nc3cncc([C@H]4CCCCN4)c3)c2=S)c(C)c1 [Example 163, (R)-4-amino-1-(4-(methoxymethyl)-2,6-dimethylphenyl)-N-(5-(piperidin-2-yl)pyridin-3-yl)-6-thioxo-1,6-dihydropyrimidine-5-carboxamide trifluoroacetate] | 0.0056 | 0.0028 | 0.205 | 0.25 |  | 
CNCCc1c(NC(=O)c2c(N)ncn(-c3c(C)cccc3Cl)c2=O)cccc1OC [Example 164, 4-amino-1-((S)-2-chloro-6-methylphenyl)-N-(3-methoxy-2-(2-(methylamino)ethyl)phenyl)-6-oxo-1,6-dihydropyrimidine-5-carboxamide] | 0.0294 | 0.0097 | 1.17 | 1.85 |  | 
CCOc1cc(Cl)c(-n2cnc(N)c(C(=O)Nc3cncc(CNCCS(C)(=O)=O)c3)c2=O)c(Cl)c1 [Example 165, 4-amino-1-(2,6-dichloro-4-ethoxyphenyl)-N-(5-(((2-(methylsulfonyl)ethyl)amino)methyl)pyridin-3-yl)-6-oxo-1,6-dihydropyrimidine-5-carboxamide] | 0.0108 | 0.0093 | 1.12 | 0.434 |  | 
NCc1cccc(NC(=O)c2c(N)ncn(-c3c(Cl)cccc3Cl)c2=O)c1OC(F)F [Example 170, 4-amino-N-(3-(aminomethyl)-2-(difluoromethoxy)phenyl)-1-(2,6-dichlorophenyl)-6-oxo-1,6-dihydropyrimidine-5-carboxamide trifluoroacetate] | 0.0218 | 0.0164 | 0.526 | 0.52 |  | 
NCc1cccc(NC(=O)c2c(N)ncn(-c3c(Cl)cccc3Cl)c2=O)c1C(F)(F)F [Example 171, 4-amino-N-(3-(aminomethyl)-2-(trifluoromethyl)phenyl)-1-(2,6-dichlorophenyl)-6-oxo-1,6-dihydropyrimidine-5-carboxamide] | 0.0448 | 0.0301 | 0.851 | 1.28 |  | 
Nc1ncn(-c2c(O)cccc2Cl)c(=O)c1C(=O)Nc1cncc([C@@H]2CCCCN2)c1 [Example 173, (S)-4-amino-1-(2-chloro-6-hydroxyphenyl)-6-oxo-N-(5-(piperidin-2-yl)pyridin-3-yl)-1,6-dihydropyrimidine-5-carboxamide] |  | 1.51 | 25 |  | 1.88 | 10
CCC[C@@H](N)c1cncc(NC(=O)c2c(N)ncn(-c3c(C)cc(COC)cc3C)c2=O)c1 [Example 176, (R)-4-amino-N-(5-(1-aminobutyl)pyridin-3-yl)-1-(4-(methoxymethyl)-2,6-dimethylphenyl)-6-oxo-1,6-dihydropyrimidine-5-carboxamide] | 0.0051 | 0.0026 | 0.19 | 0.272 |  | 
COc1cc(Cl)c(-n2cnc(N)c(C(=O)Nc3cncc(C4(N)CCC4)c3)c2=O)c(Cl)c1 [Example 179, 4-amino-N-(5-(1-aminocyclobutyl)pyridin-3-yl)-1-(2,6-dichloro-4-methoxyphenyl)-6-oxo-1,6-dihydropyrimidine-5-carboxamide] | 0.0037 | 0.0033 | 0.179 | 0.257 |  | 
COc1cc(Cl)c(-n2cnc(N)c(C(=O)Nc3cncc(C4(N)CC4)c3)c2=O)c(Cl)c1 [Example 181, 4-amino-N-(5-(1-aminocyclopropyl)pyridin-3-yl)-1-(2,6-dichloro-4-methoxyphenyl)-6-oxo-1,6-dihydropyrimidine-5-carboxamide] | 0.0079 | 0.007 | 0.491 | 0.536 |  | 
COc1cc(Cl)c(-n2cnc(N)c(C(=O)Nc3cncc(C4(N)CCOCC4)c3)c2=O)c(Cl)c1 [Example 182, 4-amino-N-(5-(4-aminotetrahydro-2H-pyran-4-yl)pyridin-3-yl)-1-(2,6-dichloro-4-methoxyphenyl)-6-oxo-1,6-dihydropyrimidine-5-carboxamide] | 0.0174 | 0.0082 | 0.643 | 0.915 |  | 
CCOc1cc(Cl)c(-n2cnc(N)c(C(=O)Nc3cncc(C4(N)CCC4)c3)c2=O)c(Cl)c1 [Example 183, 4-amino-N-(5-(1-aminocyclobutyl)pyridin-3-yl)-1-(2,6-dichloro-4-ethoxyphenyl)-6-oxo-1,6-dihydropyrimidine-5-carboxamide] | 0.0079 | 0.005 | 0.3 | 0.576 |  | 
Cc1cc(C(C)(F)F)cc(C)c1-n1cnc(N)c(C(=O)Nc2cncc([C@H]3CCCCN3)c2)c1=O [Example 186, (R)-4-amino-1-(4-(1,1-difluoroethyl)-2,6-dimethylphenyl)-6-oxo-N-(5-(piperidin-2-yl)pyridin-3-yl)-1,6-dihydropyrimidine-5-carboxamide] | 0.0044 | 0.0021 | 0.152 | 0.169 |  | 
COc1cc(Cl)c(-n2cnc(N)c(C(=O)Nc3cncc4c3CCC43CCCN3)c2=O)c(Cl)c1 (stereo not shown) [Example 192, 4-amino-1-(2,6-dichloro-4-methoxyphenyl)-N-(5,6-dihydrospiro[cyclopenta[c]pyridine-7,2′-pyrrolidin]-4-yl)-6-oxo-1,6-dihydropyrimidine-5-carboxamide] | 0.0018 | 0.0014 | 0.0188 | 0.0147 |  | 
Nc1ncn(-c2c(Cl)cc(OC(F)F)cc2Cl)c(=O)c1C(=O)Nc1cccc([C@@H]2CCCN2)c1 [Example 193, (S)-4-amino-1-(2,6-dichloro-4-(difluoromethoxy)phenyl)-6-oxo-N-(3-(pyrrolidin-2-yl)phenyl)-1,6-dihydropyrimidine-5-carboxamide] | 0.0092 | 0.0068 | 0.487 | 0.481 |  | 
Nc1ncn(-c2c(Cl)cc(OC3CC3)cc2Cl)c(=O)c1C(=O)Nc1cncc([C@@H]2CCCN2)c1 [Example 194, (S)-4-amino-1-(2,6-dichloro-4-cyclopropoxyphenyl)-6-oxo-N-(5-(pyrrolidin-2-yl)pyridin-3-yl)-1,6-dihydropyrimidine-5-carboxamide] | 0.0062 | 0.0051 | 0.33 | 0.302 |  | 
COC(=O)c1cc(Cl)c(-n2cnc(N)c(C(=O)Nc3cncc([C@@H]4CCCCN4)c3)c2=O)c(Cl)c1 [Example 196, methyl(S)-4-(4-amino-6-oxo-5-((5-(piperidin-2-yl)pyridin-3-yl)carbamoyl)pyrimidin-1 (6H)-yl)-3,5-dichlorobenzoate] | 0.0066 | 0.0042 | 0.242 | 0.4 |  | 
CCNCc1cncc(NC(=O)c2c(N)ncn(-c3c(Cl)cc(C(=O)OC)cc3Cl)c2=O)c1 [Example 198, methyl 4-(4-amino-5-((5-((ethylamino)methyl)pyridin-3-yl)carbamoyl)-6-oxopyrimidin-1 (6H)-yl)-3,5-dichlorobenzoate] | 0.0056 | 0.0037 | 0.209 | 0.332 |  | 
CCNCc1cncc(NC(=O)c2c(N)ncn(-c3c(Cl)cc(C(=O)OCC)cc3Cl)c2=O)c1 [Example 199, ethyl 4-(4-amino-5-((5-((ethylamino)methyl)pyridin-3-yl)carbamoyl)-6-oxopyrimidin-1 (6H)-yl)-3,5-dichlorobenzoate] | 0.0033 | 0.0024 | 0.118 | 0.203 |  | 
